{"source": "patent US8202696B2", "about": "“Means for use in treating diseases correlated with or caused by non-physiological levels of microtubule-associated PP2Ac” (Max-Planck-Gessellschaft zur Forderung der Wissenschaften …, priority 2002, dated 2012)", "key": {"proteasome": {"tested_on": "proteasome", "assay": "Polyubiquitinated proteins in the MID1 immune complex, COS7 cells", "format": "cell-based", "details": "MID1-myc, anti-myc precipitate", "method": "Immunoprecipitation, western blotting and immunofluorescence. For COS7 cells, we lysed in IP1 buffer 8×10^6 cells transfected with pBudCE4 vector carrying the respective cDNAs. After preclearing the lysate with 50 μl protein A-agarose (slurry), we incubated supernatants with 2 μg anti-V5 overnight at 4° C. and then for 2 h with 75 μl (slurry) protein A-agarose. After three washes in IP1 buffer, we eluted the proteins with 1× Laemmli buffer at 95° C. MID1-V5 expression was optimal 48 h after doxycyclin removal from 293 tet-off cell lines. We then lysed cells in IP1 buffer and carried out immunoprecipitation with 2 μg anti-V5. We boiled proteins in 1×SDS-PAGE buffer, separated them on 10% and 12% SDS gels, blotted on PVDF membranes (Roche) and blocked and incubated with the respective primary antibody according to the manufacturer's instructions. Because several RING-finger proteins interact with target proteins and thereby elicit their ubiquitin-dependent degradation^8-11, we examined interaction of MID1 with polyubiquitinated proteins. We transfected COS7 cells either with MID1 cDNA or, as a control, with cDNA encoding protein kinase C (PKC), each tagged with a C-terminal V5 epitope or an empty vector, respectively. We treated the cells with 25 μM of LLnL, a proteasome inhibitor, 24 h after transfection to enrich for ubiquitinated proteins. […]"}, "α4": {"target": "T1, α4 (Homo sapiens, UniProt P78318)", "T1 construct": "expressed in transfected cells; host or cells: L40 yeast strain", "T1 sequence (P78318 1-339)": "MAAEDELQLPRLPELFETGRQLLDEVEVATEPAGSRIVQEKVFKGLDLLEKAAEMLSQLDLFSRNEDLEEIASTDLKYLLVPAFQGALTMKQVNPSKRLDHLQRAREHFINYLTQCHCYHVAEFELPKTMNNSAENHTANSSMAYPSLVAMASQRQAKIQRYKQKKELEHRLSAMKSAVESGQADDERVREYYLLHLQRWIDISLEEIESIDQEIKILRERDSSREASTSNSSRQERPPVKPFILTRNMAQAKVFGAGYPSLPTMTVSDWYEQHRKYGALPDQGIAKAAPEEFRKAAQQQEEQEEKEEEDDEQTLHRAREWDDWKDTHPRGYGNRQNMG", "assay": "Yeast two-hybrid interaction of MID1 constructs with α4", "format": "binding", "method": "Yeast two-hybrid screening. For yeast two-hybrid screening, we cloned full-length MID1 cDNA into the pBTM116 vector. We then cotransfected this with a human fetal brain cDNA Matchmaker library in the pGAD10 vector (Clontech) into the L40 yeast strain. We plated the transformants on synthetic medium lacking histidine, leucine and tryptophan (his^− leu^− trp^−) and containing 3-amino-1,2,4, triazole, and incubated the plates at 30° C. for 5 days. We assayed his-positive colonies for β-galactosidase activity with a filter assay^47. We isolated plasmid DNA from β-galactosidase-positive clones and cotransfected this again into L40 yeast with MID1-pBTM116 and controls. We selected plasmids that produced growth on selective plates only in combination with MID1-pBTM116, which were assumed to code for MID1 interactors, and sequenced them.\nActivity of β-galactosidase in yeast liquid cultures. We assayed cells for β-galactosidase activity by the o-nitrophenyl-β-D-galactopyranoside (ONPG) method^47.\nMID1 is a multidomain protein harboring a RING finger, two B-boxes, a coiled-coil region, a fibronectin type III domain and a B30.2 domain^3—all of which are candidate regions for specific protein-protein interactions. To clarify which domain specifically binds α4, we tested several deletion mutants of MID1 for interaction with α4 in the yeast two-hybrid system. […]"}, "Gli3": {"tested_on": "Gli3", "assay": "Localization of overexpressed GFP-tagged Gli3 in HeLa cells", "format": "cell-based", "details": "GFP-Gli3 plus B-Box overexpressing HeLa cells", "method": "1×10^5 HELA cells per well of a 6-well plate were transfected with Qiagen Polyfect transfection reagent according to the manufacturer's instructions. The ratio of the amount of DNA to the amount of polyfect transfection reagent was 3 μg DNA/10 μl Polyfect. Constructs used for expression in HELA were the following: GFP-GLI3 (aa 18-1549), GLI3-GFP (aa 1-1522), MYC-GLI3 (aa 18-1596), FLAG-GLI3 (aa18-1596), MYC-B-BOX1 (aa 110-167 of the MID1 protein), ALPHA4-V5 (aa 1-339). 24 h after transfection immunofluorescence was performed. GFP-constructs were treated as described in Schweiger et al., 1999. Immunofluorescence with MYC-tagged and FLAG-tagged constructs was done according to Trockenbacher et al., 2001. FLAG-tagged constructs were detected with anti-FLAG-antibody diluted 1:500, the secondary antibody FITC-antimouse was diluted 1:1000. For MYC-tagged constructs anti-MYC-antibody 1:300 and CY3-antirabbit 1:1000 were used. […]\nOverexpressed Gli3 is predominantly localized in the nucleus (FIG. 10, top left)."}, "PP2A": {"tested_on": "PP2A", "assay": "hFused phosphorylation in vitro, cytosol incubated with or without fostriecin, Western blot", "format": "biochemical", "details": "fostriecin 500 nM, 4 h, 30° C.", "method": "8×10^5 cells were transfected with hFused-V5 (aa 1-1335) using Qiagen Polyfect transfection reagent according to the manufacturer's instructions. Cytosol of hFused-V5 overexpressing cells was incubated for 4 h in the presence or absence of fostriecin (500 nM) at 30° C. Proteins (200 μg protein per lane) were separated on a 6% SDS-gel, blotted on PVDF-membranes and incubated with anti-V5-antibody (1:3000). Secondary HRP-antimouse-antibody was diluted 1:2000.\nFostriecin is a highly specific inhibitor of PP2A activity.\nCytosol of V5-tagged hFused-overexpressing cells was incubated for 4 h in the absence (line1) and presence (line2) of fostriecin at 30° C. Subsequently proteins were separated on an SDS-Page, blotted and incubated with an anti-V5 antibody."}, "tau protein": {"tested_on": "tau protein", "assay": "Tau-1 and pan-Tau immunofluorescence in transfected postnatal sympathetic neurons", "format": "cell-based, rat", "details": "compared to non-transfected neurons = 100%, two days after transfection", "method": "Peripheral sympathetic neurons were obtained from postnatal day 1-3 rats. […] Following mechanical dissociation the cell suspension was filtered through a 40 μm nylon mesh and seeded at 6 SCGs per well into uncoated Falcon dishes for preplating purposes. After 4 hours neurons were transferred into glass floor dishes (Willco Wells B.V., gwst 3522, 3.8 cm^2 area/dish) coated with poly-D-lysine/laminin. Neurons were maintained in RPMI medium containing antibiotics, N2 additive (Invitrogen) and 100 ng/ml nerve growth factor (NGF; Sigma) at 37° C. in a humidified atmosphere with 5% CO2.\nNeurons were transfected 2 hours after seeding applying the biolistic approach. This method uses a hand held gun to bombard dissociated neurons at high velocity with micron-size gold particles loaded with DNA. The coating of gold particles with DNA was achieved using a modification of the manufacturer's instructions (Bio-Rad Laboratories). For preparation of 35 cartridges 25 mg gold particles (1.6 μm diameter) were suspended in 50 μl of 0.05 M spermidine. After vortexing and sonication for 5 seconds, 50 μg plasmid DNA dissolved in 50 μl TE buffer was added (for co-transfection experiments, 80 μg were used, i.e., 40 μg Plasmid I+40 μg Plasmid 2). The amount of gold particles and DNA corresponds to a microcarrier loading quantity (MLQ) of about 0.7 (mg/cartridge) and to a DNA loading ratio (DLR) of 2 (μg/mg) for single transfection experiments. DNA, spermidine and gold were then mixed for 5 sec in a variable speed vortexer. At low vortexing speed, 50 μl 1 M CaCl2 was added dropwise to the mixture for association of DNA with the gold particles followed by precipitation for 10 min at room temperature. The supernatant was removed and the pellet rinsed with 800 μl of 100% ethanol. Washing was repeated two times with centrifugation steps at 3000 g between each wash. […]\nA fully motorized Zeiss Axiovert 100M microscope equipped for inverted fluorescence was used for visualization of fluorescent neurons. […]"}}, "note": "“Also recorded” adds a separate entry of the source."}
{"molecule": "CC(=O)N[C@@H](CSC(=O)[C@]1([C@@H](O)C(C)C)NC(=O)[C@H](C)[C@@H]1O)C(=O)O", "note": "[lactacystin]", "values": [{"measurement": "High-molecular weight proteins in MID1-myc-containing precipitates", "setting": "proteasome", "result": "enrichment of high-molecular weight proteins"}]}
{"molecule": "MID2: protein highly similar in amino acid sequence (83%) to MID1 (PTTAMSSERIACQFCEQDPPRDAVKTCITCEVSYCDRCLRATHPNKKPFTSHRLVEPV; listed as Homo sapiens)", "values": [{"measurement": "Interaction with α4", "setting": "α4", "result": "binds α4"}]}
{"molecule": "C[C@@](O)(/C=C/[C@H]1CC=CC(=O)O1)[C@@H](C[C@@H](O)\\C=C/C=C\\C=C\\CO)OP(=O)(O)O", "note": "[fostriecin]", "values": [{"measurement": "Gli3 localization in presence of B-Box overexpression", "setting": "Gli3", "result": "reverse the observed effect"}, {"measurement": "Phosphorylated hFused-band on Western blot", "setting": "PP2A", "result": "clear enrichment of the phosphorylated hFused-band"}, {"measurement": "Ratio between phosphorylated and dephosphorylated hFused-form", "setting": "PP2A; cytosol of V5-tagged hFused-overexpressing cells, control without fostriecin 1.8×", "result": 18, "unit": "×"}]}
{"molecule": "inactive mutated form of the B-BOX1: Bbox1 with exchange of alanine 130 to threonine, abolishes association with α4 (ANTMTSAEKVLCQFCDQDPAQDTVKTCVTCEVSYCDECLKATHPNKKPFTGHRLIEPI) [reference compound]", "values": [{"measurement": "Tau-1 immunoreactivity (dephosphorylated tau)", "setting": "tau protein", "result": "does not show this effect; also recorded: do not exhibit different fluorescent levels"}]}
